Columns and labels:
Plasmodium falciparum [1] = assay: NOVARTIS: Inhibition of Plasmodium falciparum 3D7 (drug-susceptible) proliferation in erythrocyte-based infection assay; type: functional, organism-based; settings: Plasmodium falciparum, 3D7
Plasmodium falciparum [2] = assay: NOVARTIS: Inhibition of Plasmodium falciparum W2 (drug-resistant) proliferation in erythrocyte-based infection assay; type: functional, organism-based; settings: Plasmodium falciparum, W2; read-out: EC50
[3] = NOVARTIS: Cytotoxicity against human hepatocellular carcinoma cell line (Huh7); type: toxicity, cell-based, Huh-7; settings: Huh7 cells (hepatocellular carcinoma cell line)

Structure (SMILES)	EC50 (Plasmodium falciparum [1]) [nM]	EC50 (Plasmodium falciparum [2]) [nM]	CC50 [3] [nM]
O=C(NN=Cc1cccc(Cl)c1)C1COc2ccccc2O1 (stereo not given)	> 935	> 144	> 10000
CCOC(=O)c1cnc2c(OC)cccc2c1Nc1ccc(C(C)=O)cc1	592	123	> 100000
S=C(NCc1ccco1)NN=CC=NNC(=S)NCc1ccco1	121	113	> 10000
Cc1ccc(NC(=O)COc2ccc(Cl)cc2Cl)nc1	> 5570	> 3030	> 100000
Cc1cc(N2CCCC2)nc2ccc(NC(=S)NCCCN3CCN(Cc4ccccc4)CC3)cc12	116	658	55500
COc1ccc(CN2CCN(C(=O)c3sc4ncn(Cc5ccccc5F)c(=O)c4c3C)CC2)c(OC)c1OC	1010	> 1250	> 10000
CCc1ccc(C(=O)N(C)CCCNc2ccnc3cc(Cl)ccc23)cc1	337	250	2860
COc1cccc(-c2ccc(O)c(CNCC3CC4C=CC3C43CC3)c2)n1 (stereo not given)	153	19.9	> 85900
C=CCNC(=S)N1CCc2c([nH]c3ccccc23)C1C(F)(F)F (stereo not given)	208	108	70700
COc1ccc2c(c1)[nH]c1c(N3CCN(C(c4ccccc4)c4ccccc4)CC3)ncnc12	339	435	16300
COc1ccc2ccccc2c1C1CC(=O)N2CN(Cc3ccco3)CSC2=C1C#N (stereo not given)	3320	2180	> 100000
CCOC(=O)c1cccc(NC(=O)CC2C(=O)N(c3ccc(F)cc3)C(=O)N2CCC(C)C)c1 (stereo not given)	202	101	> 100000
O=C(Nc1cc(C(F)(F)F)ccc1N1CCOCC1)C(Cl)(Cl)Cl	376	116	74800
Cc1ccc(CN2C(=O)C(O)(CC(=O)c3ccccc3)c3ccccc32)cc1 (stereo not given)	7010	8960	> 64500
O=C(O)CSc1ccc(C(=O)NC2CCCCNC2=O)cn1 (stereo not given)	> 1490	263	> 10000
COC(=O)c1cccc(-c2cc(Cl)c3c(c2)CC(CNC(=O)c2c(C)noc2C)O3)c1 (stereo not given)	881	786	75900
CC(C)(C)CC(C)(C)Nc1c(-c2ccccc2OC(=O)C2CCCC2)nc2ccccn12	2100	29.9	> 10000
Cc1ccc(N(C(=O)c2snc(C(=O)NC3CCCCC3)c2N)C(C(=O)NCCc2ccccc2)c2ccc(O)cc2)c(C)c1 (stereo not given)	1480	672	> 100000
COc1cc(-c2nc3ccc(N4CCN(C)CC4)cc3[nH]2)cc(OC)c1OC	733	5570	21200
Cc1ccc(-c2nc(CS(=O)(=O)CC(=O)NC3CCC(C)CC3)c(C)o2)cc1 (stereo not given)	> 1250	> 244	> 10000
Oc1ccc(-c2nc(-c3ccc4oc5ccc(-c6[nH]c(-c7ccc(O)cc7)nc6-c6ccccc6)cc5c4c3)c(-c3ccccc3)[nH]2)cc1	3300	8280	> 100000
Cc1ccc2oc(=O)c3cnn(CC(=O)Nc4ccc(F)cc4Cl)c3c2c1	> 1150	> 1250	> 10000
O=C(COc1ccc(Cl)cc1)NCc1ccc(CNc2noc3ccccc23)cc1	3100	7290	66200
CCOc1cc([N+](=O)[O-])cc(C=Nc2cccc(NC(=O)c3ccco3)c2)c1O	> 1250	> 1240	> 10000
Cn1c(=O)c2c(nc(N3CCN(C(=O)Nc4ccc(F)cc4F)CC3)n2C)n(C)c1=O	> 1250	1200	> 10000

— ChEMBL document CHEMBL1156829 (Proc Natl Acad Sci U S A, 2008)
